Source: ChEMBL document CHEMBL4627344, “Synthesis, biological evaluation and virtual screening of some acridone derivatives as potential anticancer agents” (2020)

Columns and labels:
Assay type in all cases: functional
NCI-H460 [1] = assay: Antiproliferative activity against human NCI-H460 cells assessed as inhibition of cell growth at 10 uM measured after 48 hrs by SRB assay relative to control; settings: NCI-H460, 48 h, read-out: GI
SW-620 [2] = assay: Antiproliferative activity against human SW620 cells assessed as inhibition of cell growth at 10 uM measured after 48 hrs by SRB assay relative to control; settings: SW-620, 48 h, read-out: GI
SNB-75 [3] = assay: Antiproliferative activity against human SNB75 cells assessed as inhibition of cell growth measured after 48 hrs by SRB assay; settings: SNB-75, 48 h
A549 [4] = assay: Antiproliferative activity against human A549 cells assessed as inhibition of cell growth at 10 uM measured after 48 hrs by SRB assay relative to control; settings: A549, 48 h, read-out: GI
NCI/ADR-RES = assay: Antiproliferative activity against human NCI-ADR-RES cells assessed as inhibition of cell growth at 10 uM measured after 48 hrs by SRB assay relative to control; settings: read-out: GI
CCRF-CEM = assay: Antiproliferative activity against human CCRF-CEM cells assessed as inhibition of cell growth at 10 uM measured after 48 hrs by SRB assay relative to control; settings: read-out: GI
HCT-15 = assay: Antiproliferative activity against human HCT15 cells assessed as inhibition of cell growth measured after 48 hrs by SRB assay; settings: HCT-15, 48 h
OVCAR-3 = assay: Antiproliferative activity against human OVCAR3 cells assessed as inhibition of cell growth measured after 48 hrs by SRB assay; settings: OVCAR-3, 48 h
UO-31 = assay: Antiproliferative activity against human UO31 cells assessed as inhibition of cell growth measured after 48 hrs by SRB assay; settings: UO-31, 48 h
RXF 393 = assay: Antiproliferative activity against human RXF393 cells assessed as inhibition of cell growth at 10 uM measured after 48 hrs by SRB assay relative to control; settings: RXF 393, 48 h, read-out: GI
HT-29 [5] = assay: Antiproliferative activity against human HT-29 cells assessed as inhibition of cell growth at 10 uM measured after 48 hrs by SRB assay relative to control; settings: HT-29, 48 h, read-out: GI
HOP-62 = assay: Antiproliferative activity against human HOP62 cells assessed as inhibition of cell growth measured after 48 hrs by SRB assay; settings: HOP-62, 48 h
HL-60(TB) = assay: Antiproliferative activity against human HL-60(TB) cells assessed as inhibition of cell growth measured after 48 hrs by SRB assay; settings: HL-60, 48 h
NCI-H522 = assay: Antiproliferative activity against human NCI-H522 cells assessed as inhibition of cell growth at 10 uM measured after 48 hrs by SRB assay relative to control; settings: NCI-H522, 48 h, read-out: GI
ACHN = assay: Antiproliferative activity against human ACHN cells assessed as inhibition of cell growth at 10 uM measured after 48 hrs by SRB assay relative to control; settings: read-out: GI
SF-295 [6] = assay: Antiproliferative activity against human SF295 cells assessed as inhibition of cell growth measured after 48 hrs by SRB assay; settings: SF-295, 48 h
NCI-H226 = assay: Antiproliferative activity against human NCI-H226 cells assessed as inhibition of cell growth at 10 uM measured after 48 hrs by SRB assay relative to control; settings: NCI-H226, 48 h, read-out: GI
A549 [7] = assay: Antiproliferative activity against human A549 cells assessed as inhibition of cell growth measured after 48 hrs by SRB assay; settings: A549, 48 h
NCI-H460 [8] = assay: Antiproliferative activity against human NCI-H460 cells assessed as inhibition of cell growth measured after 48 hrs by SRB assay; settings: NCI-H460, 48 h
SNB-75 [9] = assay: Antiproliferative activity against human SNB75 cells assessed as inhibition of cell growth at 10 uM measured after 48 hrs by SRB assay relative to control; settings: SNB-75, 48 h, read-out: GI
SNB-19 = assay: Antiproliferative activity against human SNB19 cells assessed as inhibition of cell growth measured after 48 hrs by SRB assay; settings: SNB-19, 48 h
HCT-116 = assay: Antiproliferative activity against human HCT116 cells assessed as inhibition of cell growth at 10 uM measured after 48 hrs by SRB assay relative to control; settings: HCT-116, 48 h, read-out: GI
EKVX = assay: Antiproliferative activity against human EKVX cells assessed as inhibition of cell growth measured after 48 hrs by SRB assay
HT-29 [10] = assay: Antiproliferative activity against human HT-29 cells assessed as inhibition of cell growth measured after 48 hrs by SRB assay; settings: HT-29, 48 h
SW-620 [11] = assay: Antiproliferative activity against human SW620 cells assessed as inhibition of cell growth measured after 48 hrs by SRB assay; settings: SW-620, 48 h
SK-MEL-5 [12] = assay: Antiproliferative activity against human SK-MEL-5 cells assessed as inhibition of cell growth at 10 uM measured after 48 hrs by SRB assay relative to control; settings: SK-MEL-5, 48 h, read-out: GI
SF-295 [13] = assay: Antiproliferative activity against human SF295 cells assessed as inhibition of cell growth at 10 uM measured after 48 hrs by SRB assay relative to control; settings: SF-295, 48 h, read-out: GI
PC-3 = assay: Antiproliferative activity against human PC3 cells assessed as inhibition of cell growth at 10 uM measured after 48 hrs by SRB assay relative to control; settings: PC-3, 48 h, read-out: GI
SN12C = assay: Antiproliferative activity against human SN12C cells assessed as inhibition of cell growth at 10 uM measured after 48 hrs by SRB assay relative to control; settings: read-out: GI
SK-MEL-5 [14] = assay: Antiproliferative activity against human SK-MEL-5 cells assessed as inhibition of cell growth measured after 48 hrs by SRB assay; settings: SK-MEL-5, 48 h
K562 = assay: Antiproliferative activity against human K562 cells assessed as inhibition of cell growth at 10 uM measured after 48 hrs by SRB assay relative to control; settings: K562, 48 h, read-out: GI
OVCAR-5 = assay: Antiproliferative activity against human OVCAR5 cells assessed as inhibition of cell growth at 10 uM measured after 48 hrs by SRB assay relative to control; settings: OVCAR-5, 48 h, read-out: GI
BT-549 = assay: Antiproliferative activity against human BT549 cells assessed as inhibition of cell growth measured after 48 hrs by SRB assay; settings: BT-549, 48 h

| SMILES | inhibition of growth at 10 µM (NCI-H460 [1]) | inhibition of growth at 10 µM (SW-620 [2]) | GI50 (SNB-75 [3]) | inhibition of growth at 10 µM (A549 [4]) | inhibition of growth at 10 µM (NCI/ADR-RES) | inhibition of growth at 10 µM (CCRF-CEM) | GI50 (HCT-15) | GI50 (OVCAR-3) | GI50 (UO-31) | inhibition of growth at 10 µM (RXF 393) | inhibition of growth at 10 µM (HT-29 [5]) | GI50 (HOP-62) | GI50 (HL-60(TB)) | inhibition of growth at 10 µM (NCI-H522) | inhibition of growth at 10 µM (ACHN) | GI50 (SF-295 [6]) | inhibition of growth at 10 µM (NCI-H226) | GI50 (A549 [7]) | GI50 (NCI-H460 [8]) | inhibition of growth at 10 µM (SNB-75 [9]) | also measured |
| --- | --- | --- | --- | --- | --- | --- | --- | --- | --- | --- | --- | --- | --- | --- | --- | --- | --- | --- | --- | --- | --- |
| COc1ccc2nc3c(cc2c1)C(=O)CC(C(F)(F)F)C3 (stereo not given) | 89.5% | 58.5% | 2.16 µM | 60.7% | 81.1% | 90.1% | 1.37 µM | 1.83 µM | 2 µM | 102% | 89.1% | 3.61 µM | 0.325 µM | 68.1% | 50.8% | 0.853 µM | 60.2% | 3.03 µM | 2.61 µM | 92.1% | GI50 (SNB-19): 3.61 µM; inhibition of growth at 10 µM (HCT-116): 88.1%; GI50 (EKVX): 4.19 µM; GI50 (HT-29 [10]): 0.387 µM; GI50 (SW-620 [11]): 3.45 µM; inhibition of growth at 10 µM (SK-MEL-5 [12]): 68.6%; inhibition of growth at 10 µM (SF-295 [13]): 54.7%; inhibition of growth at 10 µM (PC-3): 67%; inhibition of growth at 10 µM (SN12C): 57.9%; GI50 (SK-MEL-5 [14]): 0.411 µM; inhibition of growth at 10 µM (K562): 83.2%; inhibition of growth at 10 µM (OVCAR-5): 42.3% |
| COc1ccc2nc3c(cc2c1)C(=O)CC(c1ccccc1)C3 (stereo not given) | 91.2% | 82.2% | 0.572 µM | 65.2% | 86.8% | 89.3% | 2.68 µM | 1.23 µM | 0.543 µM | 103% | 90% | 1.96 µM | 0.274 µM | 84.6% | 56.1% | 0.634 µM | 73.5% | 2.07 µM | 1.71 µM | 109% | GI50 (SNB-19): 2.62 µM; inhibition of growth at 10 µM (HCT-116): 88.9%; GI50 (BT-549): 2.21 µM; GI50 (EKVX): 5.92 µM; GI50 (HT-29 [10]): 0.428 µM; GI50 (SW-620 [11]): 0.747 µM; inhibition of growth at 10 µM (SK-MEL-5 [12]): 69.8%; inhibition of growth at 10 µM (SF-295 [13]): 69%; inhibition of growth at 10 µM (PC-3): 71.2%; inhibition of growth at 10 µM (SN12C): 59.3%; GI50 (SK-MEL-5 [14]): 0.54 µM; inhibition of growth at 10 µM (K562): 86.8%; inhibition of growth at 10 µM (OVCAR-5): 38.8% |
